Like-named read-outs stand apart in the source and are kept apart here.
Tests used:
[1] = microsomes
[2] = molecular target: Mtb Lpd (Mycobacterium tuberculosis (strain ATCC 25618 / H37Rv), UniProt P9WHH9); format: biochemical
[3] = 30 min preincubation, read-out: LPD IC50 (μM) w/ 30 min preincubation

COc1ccc(NC(=O)CN(C)S(=O)(=O)c2cc(C)cc3c2NC(=O)C3)cc1Cl [Example 2, N-(3-chloro-4-methoxyphenyl)-2-((N,5-dimethyl-2-oxoindoline)-7-sulfonamido)acetamide]
Human Liver Microsome Stability [1]: 490 µL/min/mg

Cc1cc(S(=O)(=O)N(C)CC(=O)Nc2ccn(C)c(=O)c2)c2[nH]ncc2c1 [Example 6]
Human Liver Microsome Stability [1]: -11 µL/min/mg

Cc1cc(S(=O)(=O)N2CCC[C@H]2C(=O)Nc2ccn(C)c(=O)c2)c2[nH]ncc2c1 [Example 7]
IC50 ([2]; read-out: LPD IC50): 0.0513 µM | Human Liver Microsome Stability [1]: 18 µL/min/mg

COc1ccc(NC(=O)CN(C)S(=O)(=O)c2cc(C(F)F)cc3cn[nH]c23)cc1C [Example 8]
IC50 ([2]; read-out: LPD IC50): 0.0263 µM | Human Liver Microsome Stability [1]: 534 µL/min/mg

COc1ccc(NC(=O)CN(C)S(=O)(=O)c2cc(C)cc3c(C)n[nH]c23)cc1C [Example 9]
IC50 ([2]; read-out: LPD IC50): 0.0273 µM | Human Liver Microsome Stability [1]: >768 µL/min/mg

Cc1cc2c(c(S(=O)(=O)N(C)CC(=O)Nc3ccc(N4CCCCC4)c(C)c3)c1)CC=C2 [Example 11]
IC50 ([2]; read-out: LPD IC50): 0.0341 µM | Human Liver Microsome Stability [1]: 105 µL/min/mg

CCn1ccc(NC(=O)CN(C)S(=O)(=O)c2cc(C)cc3cn[nH]c23)cc1=O [Example 14, 2-((N,5-dimethyl-1H-indazole)-7-sulfonamido)-N-(1-ethyl-2-oxo-1,2-dihydropyridin-4-yl)acetamide]
IC50 ([2]; read-out: LPD IC50): 0.0531 µM | Human Liver Microsome Stability [1]: -12 µL/min/mg

CCN(CC(=O)Nc1ccc(OC)c(Cl)c1)S(=O)(=O)c1cc(C)cc2cn[nH]c12 [Example 15, N-(3-chloro-4-methoxyphenyl)-2-((N-ethyl-5-methyl-1H-indazole)-7-sulfonamido)acetamide]
IC50 ([2]; read-out: LPD IC50): 0.0417 µM | Human Liver Microsome Stability [1]: 528 µL/min/mg

Cc1cc(S(=O)(=O)N(C)CC(=O)Nc2ccn(C(C)C)c(=O)c2)c2[nH]ncc2c1 [Example 16]
IC50 ([2]; read-out: LPD IC50): 0.0508 µM | Human Liver Microsome Stability [1]: 35 µL/min/mg

Cc1cc(NC(=O)CN(C)S(=O)(=O)c2c(C)c(C)cc3cn[nH]c23)ccc1N1CCOCC1 [Example 19]
IC50 ([2]; read-out: LPD IC50): 0.0469 µM | Human Liver Microsome Stability [1]: 253 µL/min/mg

CCc1ccc(NC(=O)CN(C)S(=O)(=O)c2cc(C)cc3cc[nH]c23)cc1C [Example 21]
IC50 ([2]; read-out: LPD IC50): 0.136 µM | Human Liver Microsome Stability [1]: 328 µL/min/mg

Cc1cc(S(=O)(=O)N(C)CC(=O)Nc2ccn(C)c(=O)c2)c2[nH]ccc2c1 [Example 23]
IC50 ([2]; read-out: LPD IC50): 0.0993 µM | Human Liver Microsome Stability [1]: 19 µL/min/mg

Cc1cc(S(=O)(=O)N(C)CC(=O)Nc2ccn3nccc3c2)c2[nH]ncc2c1 [Example 25]
IC50 ([2]; read-out: LPD IC50): 0.0204 µM | Human Liver Microsome Stability [1]: 275 µL/min/mg

Cc1cc(S(=O)(=O)N(C)CC(=O)Nc2ccn3ccnc3c2)c2[nH]ncc2c1 [Example 26]
IC50 ([2]; read-out: LPD IC50): 0.0628 µM | Human Liver Microsome Stability [1]: 154 µL/min/mg

Cc1cc(S(=O)(=O)N2CC[C@H]2C(=O)Nc2ccn(C)c(=O)c2)c2[nH]ncc2c1 [Example 27, (S)-1-((5-methyl-1H-indazol-7-yl)sulfonyl)-N-(1-methyl-2-oxo-1,2-dihydropyridin-4-yl)azetidine-2-carboxamide]
IC50 ([2]; read-out: LPD IC50): 0.0545 µM | Human Liver Microsome Stability [1]: -8 µL/min/mg

COCc1n[nH]c2c(S(=O)(=O)N(C)CC(=O)Nc3ccc(OC)c(C)c3)cc(C)cc12 [Example 28]
IC50 ([2]; read-out: LPD IC50): 3640 µM | Human Liver Microsome Stability [1]: >768 µL/min/mg

Cc1cc(S(=O)(=O)N(C)CC(=O)Nc2ccc3c(c2)OCCO3)c2[nH]ncc2c1 [Example 29]
IC50 ([2]; read-out: LPD IC50): 0.0109 µM | Human Liver Microsome Stability [1]: 76 µL/min/mg

Cc1cc(S(=O)(=O)N(C)CC(=O)Nc2ccc3c(c2)OCCN3C)c2[nH]ncc2c1 [Example 30, 2-((N,5-dimethyl-1H-indazole)-7-sulfonamido)-N-(4-methyl-3,4-dihydro-2H-benzo[b][1,4]oxazin-7-yl)acetamide]
IC50 ([2]; read-out: LPD IC50): 0.00363 µM | Human Liver Microsome Stability [1]: 78 µL/min/mg

Cc1cc(S(=O)(=O)N(C)CC(=O)Nc2ccc3c(c2)N(C)CCO3)c2[nH]ncc2c1 [Example 31]
IC50 ([2]; read-out: LPD IC50): 0.0165 µM | Human Liver Microsome Stability [1]: 91 µL/min/mg

Cc1cc(S(=O)(=O)N(C)CC(=O)Nc2ccc(N3CCOCC3)c(C)c2)c2[nH]ncc2c1 [Example 32]
IC50 ([2]; read-out: LPD IC50): 0.0043 µM | Human Liver Microsome Stability [1]: 234 µL/min/mg

Cc1cc(NC(=O)CN(C)S(=O)(=O)c2cc(C3CC3)cc3cn[nH]c23)ccc1N1CCOCC1 [Example 34]
IC50 ([2]; read-out: LPD IC50): 0.0067 µM | Human Liver Microsome Stability [1]: 203 µL/min/mg

CN(CC(=O)Nc1ccn(C)c(=O)c1)S(=O)(=O)c1cc(C2CC2)cc2cn[nH]c12 [Example 35]
IC50 ([2]; read-out: LPD IC50): 0.152 µM | Human Liver Microsome Stability [1]: 91 µL/min/mg

Cc1cc(S(=O)(=O)N(C)CC(=O)Nc2ccn(C)c(=O)c2)c2[nH]nc(C)c2c1 [Example 36]
IC50 ([2]; read-out: LPD IC50): 0.0657 µM | Human Liver Microsome Stability [1]: -26 µL/min/mg

CN(CC(=O)Nc1ccn(C)c(=O)c1)S(=O)(=O)c1cc(C(F)F)cc2cn[nH]c12 [Example 37]
IC50 ([2]; read-out: LPD IC50): 0.0474 µM | Human Liver Microsome Stability [1]: 22 µL/min/mg

Cc1cc(S(=O)(=O)N2CC[C@H]2C(=O)Nc2ccc3c(c2)OCCO3)c2[nH]ncc2c1 [Example 39]
IC50 ([2]; read-out: LPD IC50): 0.0237 µM | Human Liver Microsome Stability [1]: 76 µL/min/mg

Cc1cc(S(=O)(=O)N2CC[C@H]2C(=O)Nc2ccc3c(c2)OCCN3C)c2[nH]ncc2c1 [Example 40]
IC50 ([2]; read-out: LPD IC50): 0.03 µM | Human Liver Microsome Stability [1]: 78 µL/min/mg

Cc1cc(S(=O)(=O)N2CC[C@H]2C(=O)Nc2ccc3c(c2)N(C)CCO3)c2[nH]ncc2c1 [Example 41]
IC50 ([2]; read-out: LPD IC50): 0.0356 µM | Human Liver Microsome Stability [1]: 197 µL/min/mg

Cc1cc(S(=O)(=O)N(C)CC(=O)Nc2ccc(C3CCCCC3)c(C)c2)c2[nH]c(C)cc2c1 [Example 42]
IC50 ([2]; read-out: LPD IC50): 0.573 µM | Human Liver Microsome Stability [1]: 23 µL/min/mg

Cc1cc(S(=O)(=O)N(C)CC(=O)Nc2ccn(C)c(=O)c2)c2[nH]ncc2c1F [Example 43, 2-((4-fluoro-N,5-dimethyl-1H-indazole)-7-sulfonamido)-N-(1-methyl-2-oxo-1,2-dihydropyridin-4-yl)acetamide]
IC50 ([2]; read-out: LPD IC50): 0.0498 µM | Human Liver Microsome Stability [1]: 42 µL/min/mg

CCN(CC(=O)Nc1ccc2c(c1)OCCN2C)S(=O)(=O)c1cc(C)cc2cn[nH]c12 [Example 88]
Human Liver Microsome Stability [1]: 46 µL/min/mg

CC(=O)N1CCOc2cc(NC(=O)CN(C)S(=O)(=O)c3cc(C)cc4cn[nH]c34)ccc21 [Example 90]
Human Liver Microsome Stability [1]: 18 µL/min/mg

Cc1cc(S(=O)(=O)N(C)CC(=O)Nc2ccc3c(c2)OCCN3C)c2[nH]nc(C)c2c1 [Example 92]
Human Liver Microsome Stability [1]: 19 µL/min/mg

CN(CC(=O)Nc1ccn(C)c(=O)c1)S(=O)(=O)c1cc(F)cc2cn[nH]c12 [Example 93]
Human Liver Microsome Stability [1]: 6 µL/min/mg

O=C(Nc1ccc2c(c1)OCCN2C1COC1)[C@@H]1CCN1S(=O)(=O)c1cc(C(F)F)cc2cn[nH]c12 [Example 180, (S)-1-((5-(difluoromethyl)-1H-indazol-7-yl)sulfonyl)-N-(4-(oxetan-3-yl)-3,4-dihydro-2H-benzo[b][1,4]oxazin-7-yl)azetidine-2-carboxamide]
Human Liver Microsome Stability [1]: 61 µL/min/mg

CC#CCNC(=O)CN(C)S(=O)(=O)c1cc(C)cc2cc(C#N)[nH]c12 [Example 210]
Human Liver Microsome Stability [1]: 39 µL/min/mg

CC#CCN(C)C(=O)CN(C)S(=O)(=O)c1cc(C)cc2cc(C#N)[nH]c12 [Example 226]
IC50 [2, 3]: 0.368 µM

C/C=C/CNC(=O)CN(C)S(=O)(=O)c1cc(C)cc2cc(C#N)[nH]c12 [Example 227]
IC50 [2, 3]: 0.018 µM

— US20240132480A1, “INHIBITORS OF MYCOBACTERIUM TUBERCULOSIS LIPOAMIDE DEHYDROGENASE” (Cornell University, priority 2021, published 2024)
